The source of these data is patent US9181238B2, “N-(pyridin-2-yl)sulfonamides and compositions thereof as protein kinase inhibitors” (NOVARTIS AG, priority 2010, dated 2015).

This experiment concerns A375-luc cells. Nature of the experiment: A375 Cellular Proliferation Assay. It counts as cell-based. The following applies: Homo sapiens, A-375, 48 h; A375-luc melanoma cells (B-Raf V600E), 2 days incubation, BrightGlo luminescence; read-out: A375 CP IC50. The method, then:
A375 Cellular Proliferation Assay
A375 is a melanoma cell line that harbors the B-Raf V600E mutation. A375-luc cells engineered to express luciferase are plated to 384-well white clear bottom plates as 1,500 cells/50 μl/well in DMEM containing 10% FBS. Compounds of the invention dissolved in 100% DMSO at appropriate concentrations are transferred to the cells by a robotic Pin Tool (100 nl). The cells are incubated for 2 days at […], then 25 μl of BrightGlo™ is added to each well and the plates are read by luminescence. The concentration of each compound for 50% inhibition (IC50) was calculated by non-linear regression using XL Fit data analysis software.

For the molecule `CCCS(=O)(=O)Nc1ncc(F)c(Nc2nccnc2-c2cc(NCC(F)(F)F)ncn2)c1F` [Compound 7, N-(3,5-difluoro-4-(3-(6-(2,2,2-trifluoroethylamino)pyrimidin-4-yl)pyrazin-2-ylamino)pyridin-2-yl)propane-1-sulfonamide], the IC50 stood at 0.049 µM.

For `CCCS(=O)(=O)Nc1ncc(F)c(Nc2nccnc2-c2cc(NC)ncn2)c1F` [Compound 5, N-(3,5-difluoro-4-(3-(6-(methylamino)pyrimidin-4-yl)pyrazin-2-ylamino)pyridin-2-yl)propane-1-sulfonamide], the concentration for half-maximal inhibition (IC50) amounted to 0.031 µM.

`CCCS(=O)(=O)Nc1ncc(F)c(Nc2nccnc2-c2cc(NCC)ncn2)c1Cl` [Compound 6, N-(3-chloro-4-(3-(6-(ethylamino)pyrimidin-4-yl)pyrazin-2-ylamino)-5-fluoropyridin-2-yl)propane-1-sulfonamide]: the IC50 stood at 0.121 µM.

As for `CCCS(=O)(=O)Nc1ncc(F)c(Nc2nccnc2-c2cc(NCCC(F)(F)F)ncn2)c1F` [Compound 3, N-(3,5-difluoro-4-(3-(6-(3,3,3-trifluoropropylamino)pyrimidin-4-yl)pyrazin-2-ylamino)pyridin-2-yl)propane-1-sulfonamide], the IC50 was 0.021 µM.

In the case of `CCCS(=O)(=O)Nc1ncc(F)c(-c2cc3cnc(NCCC#N)cc3n(C)c2=O)c1F` [Compound 15, N-(4-(7-(2-cyanoethylamino)-1-methyl-2-oxo-1,2-dihydro-1,6-naphthyridin-3-yl)-3,5-difluoropyridin-2-yl)propane-1-sulfonamide], the IC50 was found to be 0.012 µM.

On to `CCCS(=O)(=O)Nc1nccc(-c2cc3cnc(NC)nc3n(C)c2=O)c1F` [Compound 11, N-(3-fluoro-4-(8-methyl-2-(methylamino)-7-oxo-7,8-dihydropyrido[2,3-d]pyrimidin-6-yl)pyridin-2-yl)propane-1-sulfonamide], for which the IC50 was found to be 0.229 µM.

Consider `CCCS(=O)(=O)Nc1ncc(F)c(Nc2nccnc2-c2cc(NCCS(C)(=O)=O)ncn2)c1F` [Compound 8, N-(3,5-difluoro-4-(3-(6-(2-(methylsulfonyl)ethylamino)pyrimidin-4-yl)pyrazin-2-ylamino)pyridin-2-yl)propane-1-sulfonamide], for which the IC50 was 0.191 µM.

Consider `CNc1ncc2cc(-c3c(F)cnc(NS(=O)(=O)CCC(F)(F)F)c3F)c(=O)n(C)c2n1` [Compound 14, N-(3,5-difluoro-4-(8-methyl-2-(methylamino)-7-oxo-7,8-dihydropyrido[2,3-d]pyrimidin-6-yl)pyridin-2-yl)-3,3,3-trifluoropropane-1-sulfonamide], for which the IC50 turned out to be 0.13 µM.

Regarding `CCCS(=O)(=O)Nc1ncc(F)c(Nc2nccnc2-c2cc(NCCC#N)ncn2)c1F` [Compound 2, N-(4-(3-(6-(2-cyanoethylamino)pyrimidin-4-yl)pyrazin-2-ylamino)-3,5-difluoropyridin-2-yl)propane-1-sulfonamide], the IC50 turned out to be 0.003 µM.

With `CCCS(=O)(=O)Nc1ncc(F)c(-c2cc3cnc(NC[C@H](C)NC(=O)OC)nc3n(C)c2=O)c1F` [Compound 12, (S)-methyl 1-(6-(3,5-difluoro-2-(propylsulfonamido)pyridin-4-yl)-8-methyl-7-oxo-7,8-dihydropyrido[2,3-d]pyrimidin-2-ylamino)propan-2-ylcarbamate], the IC50 was determined as 0.014 µM.

As for `CCCS(=O)(=O)Nc1ncc(F)c(-c2cc3cnc(NC)nc3n(C)c2=O)c1F` [Compound 10, N-(3,5-difluoro-4-(8-methyl-2-(methylamino)-7-oxo-7,8-dihydropyrido[2,3-d]pyrimidin-6-yl)pyridin-2-yl)propane-1-sulfonamide], the IC50 came out at 0.056 µM.

In the case of `CCCS(=O)(=O)Nc1ncc(F)c(Nc2nccnc2-c2cc(NCC(F)F)ncn2)c1F` [Compound 4, N-(4-(3-(6-(2,2-difluoroethylamino)pyrimidin-4-yl)pyrazin-2-ylamino)-3,5-difluoropyridin-2-yl)propane-1-sulfonamide], the IC50 turned out to be 0.012 µM.

For `CCCS(=O)(=O)Nc1ncc(F)c(-c2cc3cnc(NCC)cc3n(C)c2=O)c1F` [Compound 13, N-(4-(7-(Ethylamino)-1-methyl-2-oxo-1,2-dihydro-1,6-naphthyridin-3-yl)-3,5-difluoropyridin-2-yl)propane-1-sulfonamide], the IC50 amounted to 0.01 µM.

Take `CCCS(=O)(=O)Nc1ncc(F)c(Nc2nccnc2-c2cc(NCC)ncn2)c1F` [Compound 1, N-(4-(3-(6-(Ethylamino)pyrimidin-4-yl)pyrazin-2-ylamino)-3,5-difluoropyridin-2-yl)propane-1-sulfonamide]: the IC50 is 0.013 µM.

What is called IC50 is the concentration that gives 50% inhibition.
